# Test results from the supplement of paper PMC10307832.
# What was measured:
# Assay in all cases: relative viability (nuclei count vs DMSO), 5 days (fraction); higher = more cells survive
# [1] = compound: O=S(=O)(c1ccccc1)N(CC(F)(F)F)c1ccc(C(O)(C(F)(F)F)C(F)(F)F)cc1
# Outline: (§1)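 A plate was accepted only when its control CV was below 25% and the cells had doubled at least once. Viability is defined from nuclear counts as treated wells divided by vehicle wells, with the median taken across plates. That median covers lung cancer cell lines grown in 1536-well plates, dosed by pinning at five √10-spaced library-drug concentrations, and counted in MetaXpress from 4× Hoechst images after 5 days.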
# [2] = compound: C1=CC2=C(C=CC(=C2)C=C3C(=O)NC(=NCC4=CC=CS4)S3)N=C1 [RO-3306]
# Outline: as §1
# [3] = compound: COc1cc2c(Oc3ccc(NC(=O)C4(C(=O)Nc5ccc(F)cc5)CC4)cc3F)ccnc2cc1OCCCN1CCOCC1 [Foretinib] (anchor plate); conditions: 0.25 µM
# Outline: as §1
Cell Line,relative viability ([1]; 0.8 µM),relative viability ([1]; 2.53 µM),relative viability ([1]; 8 µM),relative viability ([2]; 0.01 µM),relative viability ([2]; 0.03162 µM),relative viability ([2]; 0.1 µM),relative viability ([2]; 0.3162 µM),relative viability ([2]; 1 µM),relative viability [3]
HCC-78,0.892,0.786,0.851,1.09,0.878,0.981,1.02,0.924,0.587
HCC-366,1.12,0.979,0.983,1.12,0.951,0.966,1.09,1.06,0.942
HCC-827,1.1,1.02,0.975,1.02,0.955,1.03,1.03,1.06,0.976
HOP-62,1.02,0.923,0.837,1.09,0.966,1.06,1.01,1.07,1.12
IA-LM,0.924,0.829,0.756,1.05,0.683,0.89,1.05,0.869,1.13
LC-2-ad,0.992,0.936,0.892,0.955,0.85,0.929,1.02,0.95,0.973
LCLC-97TM1,0.796,0.837,0.885,0.895,0.799,0.932,1.04,0.942,0.937
LCLC-103H,1.09,0.966,1.07,1.01,0.935,1.02,0.998,0.923,0.805
LK-2,1.06,0.894,0.98,1.07,0.855,0.922,1.17,1.02,1.18
LOU-NH91,0.984,0.968,1.05,0.931,0.914,0.934,0.918,0.852,0.94
LU99A,1.09,0.885,0.875,0.983,0.831,0.876,0.912,0.817,0.827
LXF-289,0.949,0.882,0.843,1.01,1,1.01,1.02,1,0.991
NCI-H23,1.09,1.07,1.15,0.958,0.715,0.837,1.03,1.02,0.969
NCI-H322M,1.08,0.966,0.866,0.86,0.908,0.854,0.954,1.01,1.01
NCI-H358,0.815,0.796,0.826,1.13,0.779,0.902,0.947,0.766,0.694
NCI-H441,1.12,0.896,0.941,1.09,0.795,1.11,1.13,1.04,0.994
NCI-H460,1.06,0.949,0.943,1.05,0.956,0.983,1.02,1.04,1
NCI-H520,1.1,0.963,0.982,1.05,0.834,1.01,1.04,0.957,0.745
